8 substances from patent US7011834B1, “Immunomodulating dimers” (The Board of Trustees of Leland Stanford Junior University, priority 1987, dated 2006) can be followed below.

Where no end group is shown, it is not given here.

Data set [1] relates to CD8+CTL line specific for HLA-A2. The data set is described as follows: Cytotoxicity assay: inhibition of lysis by established CTL, 51Cr-labeled JY targets. Type of data set: cell-based, human. The conditions noted are these: for inhibition of lysis by established CTL: HLA-A2 specific CD8+CTL, JY targets, peptides 100 μg/ml, 4 h assay. The method, then:
Cytotoxicity Assay. CTL assays were performed as described using ^51Cr-labeled EBV transformed B cells expressing the appropriate HLA allele as targets [[…] et al., J. Immunol. (1982) 129:2001]. In the present protocol, a CD8+CTL line specific for HLA-A2 was tested in the presence of various peptides for lysis of ^51Cr-labeled JY targets. Peptides were added to a final concentration of 100 μg/ml at the initiation of the 4 h assay. Each determination was the mean of triplicate wells. […] In these determinations, inhibition of cytolysis, as described above, employed the CTL cell line AJY, a long term CD8+CTL line specific for HLA-A2 and the target cell was the B-lymphoblastoid cell line JY (HLA-A2, B7). The cytotoxicity assay was performed as described by Clayberger et al., J. Exp. Med. (1984) 162:1709-1714; and Reiss et al., Proc Natl Acad Sci USA (1980) 77:5432-5436. The peptides were preincubated for 30 min with 1-3×10^3 CTLs before addition of 10^3 51Cr-labeled B-lymphoblastoid target cells. The results are reported for varying concentrations of the peptide with varying ratios of the two cell lines.

In data set [2] the test system is Lew specific CTL precursors in splenocytes. The data set is described as follows: Limiting dilution assay for CTL precursors in splenocytes after in vivo peptide. Also on record: species or system rat. The conditions noted are these: PVG rats; for [CTL precursor frequency]^−1: single iv 2 mg, Lew stimulators. As to the method: The effect of peptides on CTL precursor frequencies in splenocytes was tested as follows. Limiting dilution analysis was carried out essentially as described (Moeller et al. 1993, supra; Skinner and Marbrook. J. Exp. Med. (1976) 143:1562). Briefly, spleens were removed from naive animals or from animals that had received an allograft a minimum of 60 days earlier and then teased into a single cell suspension. Responder cells were plated from 1000 to 40,000 cells per well (24 replicates per concentration) into round bottom microliter wells in RPMI 1640 supplemented with 10% fetal bovine serum (Hyclone, Logan, Utah), 2 mM L-glutamine, 5×10^−5M β-mercaptoethanol, 100 U/ml penicillin, 100 μg/ml streptomycin, 20% supernatant from Concanavalin A activated rat spleen cells, and 50 μM α-methyl mannoside. Then, 5×10^5 irradiated (2000 rads) stimulator cells were added to each well and plates were incubated in a humidified CO2 incubator. After 5 days, aliquots were removed and tested for lysis of ^51Cr-labeled Concanavalin A activated blasts. Aliquots of supernatant were counted in a gamma counter and CTL precursor frequency determined by linear regression (Skinner and Marbrook. 1976, supra). Wells were considered positive if specific release was >10%.
PVG (RT1^c) or ACI […] rats were treated with a single intravenous injection of saline or 2 mg of A2.75-84, B7.75-84, B2702.75-84, or RT1^a.75-84 peptide. Their spleens were removed on different days after peptide treatment, cultured under limiting dilution conditions for 5 days with irradiated (2000R) splenocytes from Lewis rats; i.e., Lew (RT1^1) stimulator cells, and assayed for lysis of ^51Cr-labeled Lew blasts. CTL precursor frequency was determined by linear regression analysis.

The nature of data set [3]: Half-life of peptide in rats. As to conditions: rat, in vivo, preliminary studies. The method, then:
Therefore, we tested whether splenocytes obtained from rats treated with the peptides in vivo could differentiate into CTL ex vivo. In preliminary studies, the half-life of the B7.75-84 peptide was determined to be 2–3 hours in rats.

For “B2702.70–84: SEQ ID NO:33, the 15-mer; Table 1 sequence read from dashes: KAQTDRENLRIALRY (listed as Homo sapiens)”, in data set [1], the “inhibition of lysis by established CTL” value is on record as “comparably effective in inhibiting cytolysis to B2072.75-84”.

On to “REDLRIALRY (listed as Homo sapiens) [B2702.75–84D^77, aspartic replaces asparagine at position 77]”, for which the “inhibition of lysis by established CTL” value in data set [1] is “did not inhibit lysis”. As to “RENLRILLRY (listed as Homo sapiens) [B2702.75–84L^81, leucine replaces alanine at position 81]”, the “inhibition of lysis by established CTL” value in data set [1] is “inhibited lysis comparably to 02.75-84”. Regarding “RVDLRTLRGY (listed as Homo sapiens) [RT1A.75–84, peptide corresponding to the same residues from a rat MHC class I molecule, reference compound]”, the “[CTL precursor frequency]^−1” value in data set [2] (0 days after peptide injection) is given as 56,583; in data set [2] (1 day after peptide injection), 54,631; in data set [2] (7 days after peptide injection), 55,647; in data set [2] (10 days after peptide injection), 56,583. Moreover, the “precursor frequency of Lew specific cells in splenocytes (1 in)” value in data set [2] (independent of the day on which the spleen was removed) is recorded as ~55,000. Take “B2702.75–84T^80: SEQ ID NO:25; threonine replaces isoleucine at position 80: RENLRTALRY (listed as Homo sapiens)”: in data set [1], the “inhibition of lysis by established CTL” value is “did not inhibit lysis”. Regarding “B7.84–75/75–84: SEQ ID NO:27 (also NO:35); Table 1 sequence read from dashes: YGRLNRLSERRESLRNLRGY (listed as Homo sapiens)”, in data set [1], the “inhibition of lysis by established CTL” value is listed as “did not inhibit CTL-mediated lysis at any concentration tested”. For the substance WDRETQICKAKAQTDRENLRIALRY [B2702.60–84], in data set [1], the “potency relative to B2702.75-84, based on concentration required to achieve 50% inhibition of cytotoxicity” value is recorded as “approximately 5 fold”.

As usually defined, the half-life is how long it takes for the measured level to halve. The substance RESLRNLRGY [B7.75–84] returned a half-life in data set [3] of 2 to 3 h.
